Assay results from patent US11976059B2 (KOREA RESEARCH INSTITUTE OF CHEMICAL TECHNOLOGY, priority 2018, dated 2024).

Columns and labels:
Ba/F3 EGFR L858R/T790M = experiment: Ba/F3 cell viability, CellTiter-Glo; type: cell-based; settings: for cell viability: administered alone, FIGS. 1 to 4
Experimental: In order to confirm that the compound represented by formula 1 according to the present invention acted as an allosteric inhibitor against EGFR wild-type and mutants, the inhibitory effect on EGFR wild-type and mutants in Ba/F3 cell lines was evaluated. In addition, in order to evaluate the cellular activity when the compound according to the present invention was co-administered with an existing drug, the cellular activity according to the combined administration was evaluated using Cetuximab used alone or in combination with chemotherapy in metastatic colorectal cancer and metastatic squamous head and neck cancer.
Particularly, the activity of the compound of the present invention against the wild-type and mutant Ba/F3 EGFR cell lines was measured as follows using the CellTiter-Glo system of Promega. CellTiter-Glo assay is a method to confirm the cell viability by measuring ATP present in cells in cell culture state. Ba/F3 EGFR wild-type and Ba/F3 EGFR L858R, Ba/F3 EGFR L858R/T790M and Ba/F3 L858R/T790M/C797S mutant cell lines were purchased from Crown Bioscience and used. Ba/F3 EGFR wild-type and Ba/F3 EGFR L858R, Ba/F3 EGFR L858R/T790M and Ba/F3 L858R/T790M/C797S mutant cell lines were cultured in RPMI containing 10% FBS, 1% penicillin-streptomycin and 1 ug/ml of puromycine in a 37° C., 5% CO2 incubator.
Analysis of the cell survival inhibitory effect of the compound according to each EGFR mutant was performed according to the following analytical reaction recipe.
BaF3 cells were aliquoted into 2500 cells/50 ul per well of a 96 well cell culture plate and cultured for 24 hours, to which 50 ul of the compound represented by formula 1 was treated at the concentrations of 0, 0.03, 0.1, 0.3, and 1 μM. The plate treated with the compound was reacted in a 37° C. incubator for 72 hours, and then left at room temperature for 30 minutes according to the CellTiter-Glo assay instruction to maintain the plate temperature at room temperature. Thereafter, 100 μl of CellTiter-Glo reagent was treated to each well of the plate, followed by shaking incubation at room temperature for 10 minutes. Finally, the […] was quantitatively measured using a luminometer, and the ability of the compound to inhibit cell viability was confirmed. The values measured at concentrations of the compound were analyzed using Prism program (version 5.01, Graphpad Software, Inc.), and the IC50 value, an index of the inhibitory ability of the compound, was calculated.

[1] = target: EGFR L858R/T790M/C797S mutant enzyme (Homo sapiens (Human), UniProt P00533, C797S/L858R/T790M); experiment: EGFR mutant enzyme inhibition, HTRF system (Cisbio); type: biochemical; settings: ATP 1 mM, 37° C. for 2 hours
Sequence of EGFR L858R/T790M/C797S mutant enzyme (P00533 25-1210 T790M/C797S/L858R): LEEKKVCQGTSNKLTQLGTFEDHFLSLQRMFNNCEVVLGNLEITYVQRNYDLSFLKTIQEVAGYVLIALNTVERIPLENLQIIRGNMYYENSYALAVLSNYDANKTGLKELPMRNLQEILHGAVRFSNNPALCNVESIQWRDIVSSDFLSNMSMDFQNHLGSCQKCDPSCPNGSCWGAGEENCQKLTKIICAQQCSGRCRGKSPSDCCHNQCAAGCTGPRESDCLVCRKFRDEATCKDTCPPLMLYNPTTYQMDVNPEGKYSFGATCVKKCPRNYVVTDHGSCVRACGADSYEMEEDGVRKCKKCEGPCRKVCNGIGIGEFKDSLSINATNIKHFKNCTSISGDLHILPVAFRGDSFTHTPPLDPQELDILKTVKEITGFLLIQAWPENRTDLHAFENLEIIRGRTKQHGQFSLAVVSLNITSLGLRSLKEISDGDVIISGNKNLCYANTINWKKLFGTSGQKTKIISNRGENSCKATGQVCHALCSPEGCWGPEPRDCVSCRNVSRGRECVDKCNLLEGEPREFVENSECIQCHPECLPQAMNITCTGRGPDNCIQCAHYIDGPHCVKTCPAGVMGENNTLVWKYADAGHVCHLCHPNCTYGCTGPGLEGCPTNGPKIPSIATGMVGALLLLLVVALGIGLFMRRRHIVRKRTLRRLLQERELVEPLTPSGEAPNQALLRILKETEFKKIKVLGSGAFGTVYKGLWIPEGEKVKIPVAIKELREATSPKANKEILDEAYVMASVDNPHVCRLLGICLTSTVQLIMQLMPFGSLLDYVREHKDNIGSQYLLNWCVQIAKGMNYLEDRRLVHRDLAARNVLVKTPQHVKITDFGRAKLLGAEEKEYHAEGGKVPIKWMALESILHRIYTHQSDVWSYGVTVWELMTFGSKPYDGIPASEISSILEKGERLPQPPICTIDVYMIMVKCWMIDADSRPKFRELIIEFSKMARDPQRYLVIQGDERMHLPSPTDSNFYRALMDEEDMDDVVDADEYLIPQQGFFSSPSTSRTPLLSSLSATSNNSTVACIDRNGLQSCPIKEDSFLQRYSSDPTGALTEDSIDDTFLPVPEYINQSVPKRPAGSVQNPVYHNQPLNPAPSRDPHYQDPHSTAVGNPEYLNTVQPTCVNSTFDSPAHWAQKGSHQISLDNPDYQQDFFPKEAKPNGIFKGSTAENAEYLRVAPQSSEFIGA
Experimental: In order to evaluate the inhibitory activity of the compound represented by formula 1 according to the present invention against EGFR mutation, the following experiment was performed.
The activity of the compound of the present invention against EGFR mutant enzyme was measured using the HTRF system of Cisbio Co. As an EGFR L858R/T790M/C797S mutant enzyme, a protein provided by SignalChem was purchased and used as an enzyme source.
The composition of the assay buffer used for the activity measurement was as follows: 50 mM Tris-HCl (pH 7.5), 100 mM NaCl, 7.5 mM MgCl2, 3 mM KCl, 0.01% Tween 20, 0.1% BSA, and 1 mM DTT. Herein, an enzyme reaction was performed using a peptide substrate labeled with ATP at the concentration of 1 mM and biotin at the concentration of 0.5 μM. The analysis of the EGFR activity inhibitory effect of the compound was performed according to the following analytical reaction recipe.
Component 1: 4 μl of EGFR mutant enzyme
Component 2: 2 μl of compound solution
Component 3: 4 μl of ATP and biotin-labeled peptide mixture
The enzyme reaction was initiated by mixing the component 1 and the component 2 first and then adding the component 3 thereto. After reacting the mixture at 37° C. for 2 hours, 10 μl of a measurement solution consisting of streptavidin-XL665 and europium-labeled anti-phosphotyrosine antibody provided by Cisbio was added to the enzyme reaction solution, followed by reaction at room temperature for 1 hour. Finally, the ratio of the fluorescence values at 615 nm and 665 nm was calculated using Envision equipment of Perkin-Elmer to quantitatively measure the enzyme activity and confirm the inhibitory ability of the compound. The values measured at 7 concentrations of the compound were analyzed using Prism program (version 5.01, Graphpad Software, Inc.), and the IC50 value, an index of the inhibitory ability of the compound, was calculated.

Row | IC50 [1] [nM] | SMILES | cell viability (Ba/F3 EGFR L858R/T790M) | cell viability compared to EAI045 (Ba/F3 EGFR L858R/T790M; co-administered with Cetuximab, 30 nM or 100 nM, FIGS. 6 and 7)
1 | 98 | Nc1ccc(-c2ccc3c(c2)C(=O)N(C(c2nc4ccccc4[nH]2)c2cc(F)ccc2O)C3)cc1 (stereo not drawn) [Example 13, 2-((1H-benzo[d]imidazole-2-yl)(5-fluoro-2-hydroxyphenyl)methyl)-6-(4-aminophenyl)isoindolin-1-one] | increased cell viability | –
2 | 91 | O=C1c2cc(-c3ccc(N4CCNCC4)cc3)ccc2CN1C(c1nc2ccccc2[nH]1)c1ccccc1O (stereo not drawn) [Example 9, 2-((1H-benzo[d]imidazole-2-yl)(2-hydroxyphenyl)methyl)-6-(4-(piperazine-1-yl)phenyl)isoindolin-1-one] | increased cell viability | significantly reduced the cell viability
3 | 280 | O=C1c2ccccc2CN1[C@H](c1cc2cccnc2[nH]1)c1cc(F)ccc1O [Example 27, (S)-2-((5-fluoro-2-hydroxyphenyl)(1H-pyrrolo[2,3-b]pyridine-2-yl)methyl)isoindolin-1-one] | – | –
4 | 190 | O=C1c2cc(-c3ccc(N4CCC(N5CCNCC5)CC4)cc3)ccc2CN1[C@@H](c1cc2ccccc2[nH]1)c1cc(Cl)ccc1O [Example 60, (R)-2-((5-chloro-2-hydroxyphenyl)(1H-indole-2-yl)methyl)-6-(4-(4-(piperazine-1-yl)piperidine-1-yl)phenyl)isoindolin-1-one] | – | –
5 | 730 | N[C@@H]1CCN(c2ccc(-c3ccc4c(c3)C(=O)N([C@@H](c3cc5ccccc5[nH]3)c3cc(Cl)ccc3O)C4)cc2)C1 [Example 70, 6-(4-((R)-3-aminopyrrolidine-1-yl)phenyl)-2-((R)-(5-chloro-2-hydroxyphenyl)(1H-indole-2-yl)methyl)isoindolin-1-one] | – | –
6 | 170 | O=C1c2ccccc2CN1C(c1nc2ccccc2[nH]1)c1cc(Cl)ccc1O (stereo not drawn) [Example 8, 2-((1H-benzo[d]imidazole-2-yl)(5-chloro-2-hydroxyphenyl)methyl)isoindolin-1-one] | – | –
7 | 220 | O=C1c2cc(-c3ccc(-c4ccncc4)cc3)ccc2CN1C(c1nc2ccccc2[nH]1)c1cc(F)ccc1O (stereo not drawn) [Example 41, 2-((1H-benzo[d]imidazole-2-yl)(5-fluoro-2-hydroxyphenyl)methyl)-6-(4-(pyridine-4-yl)phenyl)isoindolin-1-one] | – | –
8 | 85 | O=C1c2cc(-c3ccc(-c4ccncc4)cc3)ccc2CN1[C@@H](c1cc2ccccc2[nH]1)c1cc(F)ccc1O [Example 47, (R)-2-((5-fluoro-2-hydroxyphenyl)(1H-indole-2-yl)methyl)-6-(4-(pyridine-4-yl)phenyl)isoindolin-1-one] | – | –
9 | 4400 | O=C1c2ccccc2CN1C(c1nc2ccc(Cl)cc2[nH]1)c1ccccc1O (stereo not drawn) [Example 4, 2-((6-chloro-1H-benzo[d]imidazole-2-yl)(2-hydroxyphenyl)methyl)isoindolin-1-one] | – | –
10 | 45 | N[C@H]1CCN(c2ccc(-c3ccc4c(c3)C(=O)N([C@@H](c3cc5ccccc5[nH]3)c3cc(F)ccc3O)C4)cc2)C1 [Example 71, 6-(4-((S)-3-aminopyrrolidine-1-yl)phenyl)-2-((R)-(5-fluoro-2-hydroxyphenyl)(1H-indole-2-yl)methyl)isoindolin-1-one] | – | –
11 | 3700 | CN1CCN(C2CCN(c3ccc(-c4ccc5c(c4)C(=O)N([C@@H](c4cc6ccccc6[nH]4)c4cc(Cl)ccc4O)C5)cc3)CC2)CC1 [Example 58, (R)-2-((5-chloro-2-hydroxyphenyl)(1H-indole-2-yl)methyl)-6-(4-(4-(4-methylpiperazine-1-yl)piperidine-1-yl)phenyl)isoindolin-1-one] | – | –
12 | 2300 | O=C1c2ccccc2CN1C(c1nc2cccnc2[nH]1)c1ccccc1O (stereo not drawn) [Example 3, 2-((2-hydroxyphenyl)(3H-imidazo[4,5-b]pyridine-2-yl)methyl)isoindolin-1-one] | – | –
13 | 700 | O=C1c2ccccc2CN1C(c1nc2ccccc2[nH]1)c1cc(F)ccc1O (stereo not drawn) [Example 7, 2-((1H-benzo[d]imidazole-2-yl)(5-fluoro-2-hydroxyphenyl)methyl)isoindolin-1-one] | – | –
14 | 120 | O=C1c2cc(-c3ccc(N4CCNCC4)cc3)ccc2CN1[C@H](c1cc2ccccc2[nH]1)c1cc(F)ccc1O [Example 53, (S)-2-((5-fluoro-2-hydroxyphenyl)(1H-indole-2-yl)methyl)-6-(4-(piperazine-1-yl)phenyl)isoindolin-1-one] | – | –
15 | > 10000 | O=C1c2ccccc2CN1[C@@H](c1cc2ccccc2[nH]1)c1c(O)ccc(F)c1F [Example 21, (R)-2-((2,3-difluoro-6-hydroxyphenyl)(1H-indole-2-yl)methyl)isoindolin-1-one] | – | –
16 | > 10000 | O=C1c2ccccc2CN1[C@@H](c1cc2ccccc2[nH]1)c1c(O)cccc1F [Example 25, (R)-2-((2-fluoro-6-hydroxyphenyl)(1H-indole-2-yl)methyl)isoindolin-1-one] | – | –
17 | 7600 | CN1CCN(c2ccc3c(c2)C(=O)N([C@@H](c2cc4ccccc4[nH]2)c2cc(F)ccc2O)C3)CC1 [Example 38, (R)-2-((5-fluoro-2-hydroxyphenyl)(1H-indole-2-yl)methyl)-6-(4-methylpiperazine-1-yl)isoindolin-1-one] | – | –
18 | 210 | CN1CCN(c2ccc(-c3ccc4c(c3)C(=O)N([C@@H](c3cc5ccccc5[nH]3)c3cc(F)ccc3O)C4)cc2)CC1 [Example 43, (R)-2-((5-fluoro-2-hydroxyphenyl)(1H-indole-2-yl)methyl)-6-(4-(4-methylpiperazine-1-yl)phenyl)isoindolin-1-one] | – | –
19 | 500 | Nc1ccc(-c2ccc3c(c2)C(=O)N(C(c2nc4ccccc4[nH]2)c2ccccc2O)C3)cc1 (stereo not drawn) [Example 12, 2-((1H-benzo[d]imidazole-2-yl)(2-hydroxyphenyl)methyl)-6-(4-aminophenyl)isoindolin-1-one] | – | –
20 | > 10000 | O=C1c2ccccc2CN1C(c1nc2ccc(Cl)nc2[nH]1)c1ccccc1O (stereo not drawn) [Example 6, 2-((5-chloro-3H-imidazo[4,5-b]pyridine-2-yl)(2-hydroxyphenyl)methyl)isoindolin-1-one] | – | –
21 | 160 | Nc1ccc(-c2ccc3c(c2)C(=O)N([C@@H](c2cc4ccccc4[nH]2)c2ccccc2O)C3)cc1 [Example 28, (R)-6-(4-aminophenyl)-2-((2-hydroxyphenyl)(1H-indole-2-yl)methyl)isoindolin-1-one] | – | –

Row | SMILES | IC50 [1] [nM] | cell viability (Ba/F3 EGFR L858R/T790M) | cell viability compared to EAI045 (Ba/F3 EGFR L858R/T790M; co-administered with Cetuximab, 30 nM or 100 nM, FIGS. 6 and 7)
22 | O=C1c2cc(C3=CCNCC3)ccc2CN1[C@@H](c1cc2ccccc2[nH]1)c1cc(F)ccc1O [Example 35, (R)-2-((5-fluoro-2-hydroxyphenyl)(1H-indole-2-yl)methyl)-6-(1,2,3,6-tetrahydropyridine-4-yl)isoindolin-1-one] | 730 | – | –
23 | O=C1c2cc(C3=CCNCC3)ccc2CN1C(c1nc2ccccc2[nH]1)c1cc(F)ccc1O (stereo not drawn) [Example 16] | 2900 | – | –
24 | O=C1c2cc(C3=CCNCC3)ccc2CN1[C@@H](c1cc2ccccc2[nH]1)c1cc(Cl)ccc1O [Example 36, (R)-2-((5-chloro-2-hydroxyphenyl)(1H-indole-2-yl)methyl)-6-(1,2,3,6-tetrahydropyridine-4-yl)isoindolin-1-one] | 2400 | – | –
